Results: PMC8201479, “Trisubstituted Pyrrolinones as Small-Molecule Inhibitors Disrupting the Protein–RNA Interaction of LIN28 and Let-7” (ACS Medicinal Chemistry Letters, 2021)
Where two headings read alike, the source gives them in different places.

Key:
LIN28–let-7 interaction [1] = target: T1, LIN28–let-7 interaction (Homo sapiens, UniProt Q9H9Z2); experiment: Fluorescence polarization (FP) assay, LIN28A (residues 16–187) and FAM-labeled preE-let-7f-1; format: binding; conditions: text and figures; C-labels = library sample, PH-labels = in-house resynthesized; read-out: IC50 in the FP assay
T1 construct: Purified LIN28A (residues 16–187) was incubated at a concentration of 200 nM; His-tag (cleaved yes); made in house; host or cells: Escherichia coli BL21(DE3)
T1 sequence (Q9H9Z2 16-187): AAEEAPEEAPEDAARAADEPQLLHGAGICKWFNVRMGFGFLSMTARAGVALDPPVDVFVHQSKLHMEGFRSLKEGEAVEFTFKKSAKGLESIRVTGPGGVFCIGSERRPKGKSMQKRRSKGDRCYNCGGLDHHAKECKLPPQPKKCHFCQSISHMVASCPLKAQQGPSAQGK
Experimental: Protein expression and purification.
19 vector and overexpressed in Escherichia coli BL21(DE3). The culture was incubated at 37 °C until
the absorbance at 600 nm (OD600) reached 0.5–0.7. IPTG was added to a final concentration of
300 µM, and overnight induction was performed at 18 °C. Cells were harvested by centrifugation.
The bacterial pellet was resuspended in lysis buffer (50 mM NaH2PO4, pH 7.5, 300 mM NaCl,
0.1 mM PMSF) and lysed using a Microfluidizer (Microfluidics) . A fresh portion of 0.1 mM PMSF
and Triton X-100 (1% final concentration) were added. The lysate was cleared by ultra centrifugation
at 30000 xg and 4 °C for 1 h. The protein purification was performed using immobilized nickel
300 mM NaCl and 5 % glycerol. Gradient elution was performed with a maximum of 0.5 M imidazole.
Subsequently, the affinity tag was cleaved using His6 -TEV-protease and the protease and unspecific
binders were eliminated by a second nickel affinity chromatography. After protein concentration
LIN28A containing fractions were concentrated and applied to a High Load Superdex 75 pg 16/600
column (GE Healthcare) with gel-filtration buffer (30 mM NaH2PO4, pH 7.5, 50 mM NaCl, 5%
glycerol, 2 mM β-ME). The purified protein was concentrated and stored at -80 °C until further
Fluorescence polarization. The fluorescence polarization assay was performed in black low volume
IC50 measurements were performed with three technical
minutes with compound concentrations ranging from 0.3 nM to 100 µM in FP assay buffer (20 mM
Tris, pH 7, 100 mM NaCl, 5 mM MgCl2, 2 mM glutathione (reduced), 0.1 % NP-40). Subsequently,
FAM-labeled preE-let-7f-1 (mus musculus) ([…]-
FAM, synthesized by IDT) was added to a final concentration of 2 nM. Fluorescence polarization
was detected after incubation at room temperature using a TECAN Spark plate reader. Half maximal
inhibitory concentrations (IC50) were determined using GraphPad Prism 7. […]

LIN28–let-7 interaction [2] = target: T1, LIN28–let-7 interaction; experiment: as above; format: binding; conditions: for FP, Average (mP): raw data Table S3, four replicates

O=C(C1=C(O)C(=O)N(c2ccc(O)c(C(=O)O)c2)C1c1ccc(-c2nccs2)cc1)c1ccc(Br)cc1 (stereo not shown) [C902/PH-31]
IC50 (LIN28–let-7 interaction [1]): 18 µM
IC50 (LIN28–let-7 interaction [2]; Table 1, quadruplicate, starting from a maximum concentration of 60 μM, eight concentrations, read-out: IC50, LIN28–let-7 inhibitory activity): 5 µM
FP, Average (mP) (LIN28–let-7 interaction [2]; 0.041 μM compound): 109.25 mP
FP, Average (mP) (LIN28–let-7 interaction [2]; 0.123 μM compound): 110.00 mP
FP, Average (mP) (LIN28–let-7 interaction [2]; 0.368 μM compound): 113.50 mP
FP, Average (mP) (LIN28–let-7 interaction [2]; 1.103 μM compound): 105.75 mP
FP, Average (mP) (LIN28–let-7 interaction [2]; 3.125 μM compound): 75.05 mP
FP, Average (mP) (LIN28–let-7 interaction [2]; 9.375 μM compound): 64.03 mP
FP, Average (mP) (LIN28–let-7 interaction [2]; 29.688 μM compound): 43.05 mP
FP, Average (mP) (LIN28–let-7 interaction [2]; 59.375 μM compound): 38.75 mP
